# Values quoted from earlier work, collected in patent EP2594258B1, “Oral gel comprising praziquantel” (Veterinärmedizinische Universität Wien, priority 2011, dated 2013).
solubility in chloroform (chloroform),solubility in dimethylsulfoxide (dimethylsulfoxide),solubility in ethanol (ethanol),solubility in water (water),Structure (SMILES),intoxication following treatment (alpacas)
easily soluble,easily soluble,soluble,up to 400 mg/L,"O=C(C1CCCCC1)N1CC(=O)N2CCc3ccccc3C2C1 (racemic) [Praziquantel, (RS)-2-Cyclohexylcarbonyl-2,3,4,6,7,11b-hexahydro-1H-pyrazino(2,1-a) isoquinolin-4-on]",–
–,–,–,–,CCCSc1ccc2nc(NC(=O)OC)[nH]c2c1 [albendazole],Lethal intoxications
